Laboratory results from patent publication US20260274814A1, “THIENYL COMPOUNDS FOR THE TREATMENT OF A CENTRAL NERVOUS SYSTEM DISEASE OR DISORDER” (Coreterra Therapeutics, Inc., priority 2023, published 2026).
Counter-ions that a name gives are not always drawn. Like-named read-outs stand apart in the source and are kept apart here.

Test system: mice
Experiment: Neuropharmacological Assay (SmartCube): automated behavioral signature of compound-treated mice compared with a database of reference drug classes
Type: in vivo
Settings: for MED / minimal effective dose / MED (minimal effective dose): i.p., that dose is shown; for minimal effective dose: Mus musculus, ip
Outline: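 Compounds in N-methyl-2-pyrrolidone/polyethylene glycol/propylene glycol were given i.p. 15 min before testing, at 3 doses; values shown are for 3.0 mg/kg. Video-captured behaviour was matched by algorithm against reference drug classes, giving a probability per class. MED: lowest dose reaching ≥45% total activity.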

[1] = SmartCube class probability, 3.0 mg/kg i.p., 15 min before test
[2] = SmartCube class probability, 3.0 mg/kg i.p., 15 min before test, hydrochloride, 3 mg/kg
[3] = minimal effective dose: dose having 45% or more total activity in SmartCube, if only one dose tested, hydrochloride
[4] = minimal effective dose: dose having 45% or more total activity in SmartCube, if only one dose tested, read-out: MED
[5] = SmartCube probability class, 3.0 mg/kg dose, i.p. 15 min before the behavioral test
[6] = dose having 45% or more total activity in SmartCube, if only one dose was tested, read-out: MED (minimal effective dose)
[7] = probability that activity matches this class of agents, 3.0 mg/kg i.p., 15 min before test
[8] = dose having 45% or more total activity in SmartCube, if only one dose was tested
[9] = probability that activity matches this class of agents, 3.0 mg/kg i.p., 15 min before test, hydrochloride, 3 mg/kg
[10] = dose having 45% or more total activity in SmartCube, if only one dose was tested, hydrochloride
[11] = probability that activity matches this class of agents, 3.0 mg/kg i.p., 15 min before test, 3 mg/kg

Compound | AG [1] | AN [1] | AP [1] | CE [1] | HL [1] | MS [1] | SH [1] | AX [1] | AD [7] | AG [7] | AN [7] | CE [7] | HL [7] | MS [7] | PS [7] | SH [7] | UK [7] | also measured
c1scc2c1CCC(NCC1CC1)C2 (single isomer, unassigned) [Compound 158, N-(cyclopropylmethyl)-4,5,6,7-tetrahydro-2-benzothiophen-5-amine hydrochloride] | ND (^ <4%) | ND (^ <4%) | ND (^ <4%) | ND (^ <4%) | ND (^ <4%) | ND (^ <4%) | ND (^ <4%) |  |  |  |  |  |  |  |  |  |  | AD [1]: ND (^ <4%); PS [1]: ND (^ <4%); AX [2]: ++++ (≥74%); UK [2]: ND (^ <4%); MED [3]: 1 mpk
NC1CCc2c(C(F)(F)F)csc2C1 (single isomer, unassigned) [Compound 243, 3-(trifluoromethyl)-4,5,6,7-tetrahydrobenzothiophen-6-amine hydrochloride] | ND (^ <4%) | ND (^ <4%) | ND (^ <4%) | ND (^ <4%) | ND (^ <4%) | ND (^ <4%) | ND (^ <4%) | ND (^ <4%) |  |  |  |  |  |  |  |  |  | minimal effective dose [4]: 3 mg/kg; PS [1]: ND (^ <4%); UK [1]: ND (^ <4%); AD [2]: ++ (≥24%)
CNC1COc2c(C(F)(F)F)csc2C1 (single isomer, unassigned) [Compound 309, N-methyl-3-(trifluoromethyl)-6,7-dihydro-5H-thieno[3,2-b]pyran-6-amine hydrochloride] |  |  |  |  |  |  |  |  |  |  |  |  |  |  |  |  |  | AD [5]: ND (^ <4%); AG [5]: ND (^ <4%); AN [5]: ND (^ <4%); AP [5]: ND (^ <4%); AX [5]: ND (^ <4%); CE [5]: ND (^ <4%); HL [5]: ND (^ <4%); MS [5]: ND (^ <4%); PS [5]: ND (^ <4%); SH [5]: ND (^ <4%); UK (SmartCube probability class, 3.0 mg/kg dose, i.p. 15 min before the behavioral test, hydrochloride, 3 mg/kg): ND (^ <4%); MED (minimal effective dose: dose having 45% or more total activity in SmartCube, if only one dose was tested, hydrochloride): 1 mpk
CNC1COc2c(C3CC3)csc2C1 (stereo not drawn) [Compound 235, 3-cyclopropyl-N-methyl-6,7-dihydro-5H-thieno[3,2-b]pyran-6-amine hydrochloride] | ND (^ <4%) | ND (^ <4%) | ND (^ <4%) | ND (^ <4%) | ND (^ <4%) | ND (^ <4%) | ND (^ <4%) | ND (^ <4%) |  |  |  |  |  |  |  |  |  | minimal effective dose [4]: 3 mg/kg; AD [1]: ++++ (≥74%); PS [1]: ND (^ <4%); UK [1]: ND (^ <4%)
NC1COc2c(Cl)csc2C1 (stereo not drawn) [Compound 215, 3-chloro-6,7-dihydro-5H-thieno[3,2-b]pyran-6-amine hydrochloride] | ND (^ <4%) | ND (^ <4%) | + (≥4%) | ND (^ <4%) | ND (^ <4%) | ND (^ <4%) | ND (^ <4%) | +++ (≥49%) |  |  |  |  |  |  |  |  |  | minimal effective dose [4]: 3 mg/kg; AD [1]: ND (^ <4%); PS [1]: ND (^ <4%); UK [1]: ND (^ <4%)
CNC1CCc2sc(F)cc2C1 (stereo not drawn) [Compound 82, 2-fluoro-N-methyl-4,5,6,7-tetrahydrobenzothiophen-5-amine hydrochloride] |  |  |  |  |  |  |  |  | ++ (≥24%) | ND (^ <4%) | ND (^ <4%) | ND (^ <4%) | ND (^ <4%) | ND (^ <4%) | ND (^ <4%) | ND (^ <4%) | ++ (≥24%) | minimal effective dose [6]: 3 mg/kg; AP [7]: + (≥4%); AX [7]: ND (^ <4%)
CNC1COc2csc(Cl)c2C1 (stereo not drawn) [Compound 87, 5-chloro-N-methyl-3,4-dihydro-2H-thieno[3,4-b]pyran-3-amine hydrochloride] |  |  |  |  |  |  |  |  | ND (^ <4%) | ND (^ <4%) | ND (^ <4%) | ND (^ <4%) | ND (^ <4%) | ND (^ <4%) | ND (^ <4%) | ND (^ <4%) | ND (^ <4%) | minimal effective dose [6]: 3 mg/kg; AP [7]: +++ (≥49%); AX [7]: ND (^ <4%)
CNC1(C)CCc2c(csc2C)C1 (single isomer, unassigned) [Compound 150, N, 1,5-trimethyl-6,7-dihydro-4H-2-benzothiophen-5-amine hydrochloride] | ND (^ <4%) | ND (^ <4%) | ND (^ <4%) | ND (^ <4%) |  | ND (^ <4%) | ND (^ <4%) | ND (^ <4%) |  |  |  |  |  |  |  |  |  | AD [1]: ND (^ <4%); UK [1]: ND (^ <4%); HL [2]: +++ (≥49%); PS [2]: ++ (≥24%); MED (minimal effective dose: dose having 45% or more total activity in SmartCube, if only one dose tested): 3 mpk
CNC1CCc2c(Cl)sc(Cl)c2C1 (single isomer, unassigned) [Compound 60, 1,3-dichloro-N-methyl-4,5,6,7-tetrahydro-2-benzothiophen-5-amine hydrochloride] |  |  |  |  |  |  |  |  | ND (^ <4%) | ND (^ <4%) | ND (^ <4%) | ND (^ <4%) | ND (^ <4%) | ND (^ <4%) | ND (^ <4%) | ND (^ <4%) | ND (^ <4%) | MED (minimal effective dose) [8]: 3.0 mpk; AP [9]: + (≥4%); AX [9]: +++ (≥49%)
CCc1scc2c1CC(NC)CC2 (single isomer, unassigned) [Compound 116, 3-ethyl-N-methyl-4,5,6,7-tetrahydro-2-benzothiophen-5-amine hydrochloride] |  |  |  |  |  |  |  |  | ND (^ <4%) | ND (^ <4%) | ND (^ <4%) | ND (^ <4%) | ND (^ <4%) | ND (^ <4%) | ND (^ <4%) | ND (^ <4%) | ND (^ <4%) | MED (minimal effective dose) [10]: <3 mpk; AX [7]: ND (^ <4%); AP [9]: ND (^ <4%)
Cc1sc2c(c1C)CCC(N)C2 (single isomer, unassigned) [Compound 68, 2,3-dimethyl-4,5,6,7-tetrahydrobenzothiophen-6-amine hydrochloride] |  |  |  |  |  |  |  |  |  | ND (^ <4%) | ND (^ <4%) | ND (^ <4%) |  | ND (^ <4%) | ND (^ <4%) | ND (^ <4%) | ND (^ <4%) | MED (minimal effective dose) [8]: 3 mpk; AP [7]: ND (^ <4%); AX [7]: ND (^ <4%); AD [9]: ++ (≥24%); HL [9]: + (≥4%)
CNC1CCc2sc(F)cc2C1 (single isomer, unassigned; enantiomer 2) [Compound 99, 2-fluoro-N-methyl-4,5,6,7-tetrahydrobenzothiophen-5-amine hydrochloride enantiomer 2] |  |  |  |  |  |  |  |  | ND (^ <4%) | ND (^ <4%) | ND (^ <4%) | ND (^ <4%) | ND (^ <4%) | ND (^ <4%) | ND (^ <4%) | ND (^ <4%) |  | MED (minimal effective dose) [8]: 3 mpk; AP [11]: ND (^ <4%); AX [11]: ND (^ <4%); UK [11]: +++ (≥49%)
CNC1CCc2ccsc2CC1 (stereo not drawn) [Compound 327, N-methyl-5,6,7,8-tetrahydro-4H-cyclohepta[b]thiophen-6-amine hydrochloride] |  |  |  |  |  |  |  |  |  |  |  |  |  |  |  |  |  | minimal effective dose (minimal effective dose: dose having 45% or more total activity in SmartCube, if only one dose was tested, read-out: MED): 3 mg/kg; AD [5]: ND (^ <4%); AG [5]: ND (^ <4%); AN [5]: ND (^ <4%); AP [5]: ND (^ <4%); AX [5]: ++ (≥24%); CE [5]: ND (^ <4%); HL [5]: ND (^ <4%); MS [5]: ND (^ <4%); PS [5]: ND (^ <4%); SH [5]: ND (^ <4%); UK [5]: +++ (≥49%)
NC1CCc2scc(F)c2C1 (single isomer, unassigned) [Compound 192, 3-fluoro-4,5,6,7-tetrahydrobenzothiophen-5-amine hydrochloride] |  |  |  |  | ND (^ <4%) | ND (^ <4%) | ND (^ <4%) | ND (^ <4%) |  |  |  |  |  |  |  |  |  | AD [2]: ND (^ <4%); AG [2]: ND (^ <4%); AN [2]: ND (^ <4%); AP [2]: ND (^ <4%); CE [2]: ND (^ <4%); PS [2]: ND (^ <4%); UK [2]: +++ (≥49%); MED [3]: 3 mpk
CNC1CCc2c(csc2F)C1 (single isomer, unassigned) [Compound 75, 1-fluoro-N-methyl-4,5,6,7-tetrahydro-2-benzothiophen-5-amine hydrochloride] |  |  |  |  |  |  |  |  | ND (^ <4%) | ND (^ <4%) | ND (^ <4%) | ND (^ <4%) | ND (^ <4%) | ND (^ <4%) | ND (^ <4%) | ND (^ <4%) | ND (^ <4%) | MED (minimal effective dose) [10]: 1 mpk; AP [9]: ++++ (≥74%); AX [9]: ND (^ <4%)
